Series [1] concerns the target T1, Transcriptional regulator MvfR (Pseudomonas aeruginosa PA14) (UniProt A0A072ZLE6).
T1 sequence (whole entry): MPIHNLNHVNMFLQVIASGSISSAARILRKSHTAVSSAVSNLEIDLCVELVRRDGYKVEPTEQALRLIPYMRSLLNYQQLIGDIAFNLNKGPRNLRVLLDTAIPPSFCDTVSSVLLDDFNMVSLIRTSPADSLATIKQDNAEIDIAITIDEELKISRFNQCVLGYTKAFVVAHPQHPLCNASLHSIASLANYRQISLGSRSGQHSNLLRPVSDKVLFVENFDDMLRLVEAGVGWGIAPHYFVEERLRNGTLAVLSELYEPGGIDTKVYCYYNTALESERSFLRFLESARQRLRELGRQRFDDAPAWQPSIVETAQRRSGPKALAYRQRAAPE
The series can be described thus: Inverse agonist activity at PqsR in Pseudomonas aeruginosa assessed as reduction in pyocyanin production at 0.2 uM relative to control. Details: scale not given: the % may be the effect or the level left.

A further series has as its system Escherichia coli. The series can be described thus: Inverse agonist activity at PqsR in Escherichia coli […] by measuring remaining activity at 1 uM by cell-based reporter gene assay relative to control. A general note: In a reporter assay the amount or activity of a reporter protein is the signal.
Series [2] deals with Pseudomonas aeruginosa. The series can be described thus: Antibiofilm activity against Pseudomonas aeruginosa assessed as reduction in CFU at 0.5 ug/ml. The class given is functional, organism-based. Conditions: dose 0.5 µg/ml.
In series [3] the target is T2, Transcriptional regulator MvfR (Pseudomonas aeruginosa PA14, UniProt A0A072ZLE6).
T2 sequence (A0A072ZLE6 whole entry): T1 sequence (whole entry)
The series can be described thus: Inverse agonist activity at PqsR in Pseudomonas aeruginosa assessed as reduction in pyocyanin production.

Series [4] is described as follows: Half life in human S9 fraction. Format: ADME, subcellular.
Series [5] is described as follows: Inverse agonist activity at PqsR in Escherichia coli […] by cell-based reporter gene assay.
Series [6] concerns the target T1, Transcriptional regulator MvfR (Pseudomonas aeruginosa PA14). Nature of the series: Inverse agonist activity at PqsR in Pseudomonas aeruginosa assessed as reduction in pyocyanin production at 10 uM relative to control. Set-up: scale not given: the % may be the effect or the level left. Particulars: filed as inverse agonist.
A short description of series [7]: Kinetic solubility of compound. The class given is physicochemical. Conditions: read-out: Kinetic_solubility.
A short description of series [8]: Cytotoxicity against HEK293 cells. Conditions: human, read-out: LD50 (the source's name). The class given is cell-based.
Series [9] can be described thus: Cytotoxicity against human HepG2 cells. Format: cell-based. Particulars: read-out: LD50 (the source's name).
Series [10] deals with Pseudomonas aeruginosa. Nature of the series: Antibiofilm activity against Pseudomonas aeruginosa assessed as reduction in CFU at 50 uM in presence of TOB. The class given is functional, organism-based.
Series [11] has as its system Pseudomonas aeruginosa. Nature of the series: Antibiofilm activity against Pseudomonas aeruginosa assessed as reduction in CFU at 50 uM. Format: functional, organism-based.

The text below walks through data of ChEMBL document CHEMBL5032519, “Divergent synthesis and biological evaluation of 2-(trifluoromethyl)pyridines as virulence-attenuating inverse agonists targeting PqsR” (Eur J Med Chem, 2021).

Molecules are shown by their SMILES. Converted amounts (≈) assume the structure as drawn. The source made the active and inactive calls. The calls are words filed in the database; no cut-off is given here.

For orientation: IC50 means the point on the concentration scale where inhibition reaches its midpoint. In general, half-life refers to the time in which the quantity being followed falls by half.

Consider `FC(F)(F)c1cc(NCCCc2ccc(Oc3ccccc3)cc2)ccn1`, for which the values for the Activity (in series [1]; with Escherichia coli (filed as inverse agonist)) were 0% and -41%, respectively.
For the compound `FC(F)(F)c1cc(NCCCc2ccccc2)ccn1`, the Activity with Escherichia coli stood at 52%.
Regarding `FC(F)(F)c1cc(NCC#Cc2ccc(Cl)c(Cl)c2)ccn1`, in the series on Escherichia coli (filed as inverse agonist), the Activity came out at 35%.
For `COc1ccc(C#CCNc2ccnc(C(F)(F)F)c2)cc1`, the Activity in the series on Escherichia coli (filed as inverse agonist) was 8%.
On to `FC(F)(F)c1cc(NCC#Cc2ccc(Cl)nc2)ccn1`, for which the Activity in the series with Escherichia coli (filed as inverse agonist) is 33%.
In the case of `NC[C@H]1O[C@H](O[C@H]2[C@H](O)[C@@H](O[C@H]3O[C@H](CO)[C@@H](O)[C@H](N)[C@H]3O)[C@H](N)C[C@@H]2N)[C@H](N)C[C@@H]1O`, the result in the series with Pseudomonas aeruginosa [2] was inactive.
Regarding `FC(F)(F)c1cc(NCC#Cc2ccc(Cl)cn2)ccn1`, the Activity in the series on Escherichia coli was 53%.
As to `CC(C)Oc1ccc(C#CCNc2ccnc(C(F)(F)F)c2)cc1`, the IC50 in series [3] amounted to 650 nM.
`COc1cccc(C#CCNc2ccnc(C(F)(F)F)c2)c1`: the Activity in the series with Escherichia coli came out at 58%.
For `FC(F)(F)c1cc(NC/C=C/c2ccc(Cl)nc2)ccn1`, the Activity in the series on Escherichia coli is 81%.
In series [4], `FC(F)(F)c1cc(NCc2cn(-c3ccc(Oc4ccccc4)cc3)nn2)ccn1` gave a half-life of 169 min.
As for `Oc1ccc(C#CCNc2ccnc(C(F)(F)F)c2)cc1`, in the series on Escherichia coli, the Activity was 82%.
Still for that read-out and setting: then `COc1cccc(CCCNc2ccnc(C(F)(F)F)c2)c1`, with 59%.
For `FC(F)(F)c1cc(NCC#Cc2ccc(Br)cc2)ccn1`, the Activity in the series on Escherichia coli stood at 115%.
On to `COc1ccc(C#CCNc2ccnc(C(F)(F)F)c2)cc1Cl`, for which the results for the Activity (in [1]; in the series with Escherichia coli (filed as inverse agonist)) were 4% and 29%, respectively.
In the case of `FC(F)(F)c1cc(NC/C=C/c2ccc(Cl)cc2)ccn1`, the IC50 in [5] was determined as 479 nM. Besides, in [6], the Activity is 93%.
`FC(F)(F)c1cc(SCC#Cc2ccc(Cl)cc2)ccn1`: the half-life in series [4] worked out at 43.9 min. Also, the solubility kinetic in [7] was found to be 42.4 µM (≈ 13.9 µg/mL). Further, the CC50 in series [8] and in series [9] was above 100000 nM throughout.
Regarding `Fc1ccc(C#CCNc2ccnc(C(F)(F)F)c2)cc1`, the IC50 came out at 141 nM in series [5] and 3470 nM in series [3]. In addition, the half-life in series [4] turned out to be 61.2 min. For the same compound, in series [7], the solubility kinetic is above 200 µM. Further, the CC50 in [8] and in series [9] was above 50000 nM throughout.
Take `CCOc1ccc(C#CCNc2ccnc(C(F)(F)F)c2)cc1F`: in [3], the IC50 came out at 250 nM. The compound also showed a half-life in [4] of 13 min. Besides, the solubility kinetic in series [7] amounted to 60.4 µM (≈ 20.4 µg/mL). Also, the CC50 in series [8] was 56900 nM.
Take `CC(C)Oc1ccc(C#CCNc2ccnc(C(F)(F)F)c2)cc1Cl`: the IC50 in [5] worked out at 129 nM; in series [3], 560 nM.
Regarding `Fc1cccc(C#CCNc2ccnc(C(F)(F)F)c2)c1`, the IC50 in [5] turned out to be 222 nM.
`CCOc1ccc(C#CCNc2ccnc(C(F)(F)F)c2)cc1Cl`: the IC50 is 150 nM in [5] and 390 nM in [3].
`CCOc1ccc(C#CCNc2ccnc(C(F)(F)F)c2)cc1`: the results for the IC50 in [5] and in series [3] were 170 nM and 390 nM, respectively.
As to `Fc1ccc(C#CCNc2ccnc(C(F)(F)F)c2)c(F)c1`, the Activity in the series on Escherichia coli worked out at 70%.
In the case of `FC(F)(F)c1cc(NCCCc2ccc(Cl)cc2)ccn1`, the results for the IC50 in series [5] and in [3] were 149 nM and 1050 nM, respectively.
On to `COc1ccc(C#CCNc2ccnc(C(F)(F)F)c2)cc1F`, for which, in series [3], the IC50 worked out at 3170 nM.
Turning to `FC(F)(F)c1cc(NC/C=C\c2ccc(Cl)nc2)ccn1`, the Activity with Escherichia coli (filed as inverse agonist) came out at 45%.
As to `CC(C)Oc1ccc(C#CCNc2ccnc(C(F)(F)F)c2)cc1F`, the IC50 came out at 80 nM in series [5] and 440 nM in series [3]. The same compound returned a half-life in [4] of 25.3 min. Besides, the solubility kinetic in series [7] is 58.8 µM (≈ 20.7 µg/mL). Also, the CC50 in series [8] was determined as 61900 nM; in [9] it was 69800 nM. In addition, the outcome with Pseudomonas aeruginosa [10] and with Pseudomonas aeruginosa [11] was Active.
Turning to `FC(F)(F)c1cc(NC/C=C/c2ccc(Oc3ccccc3)cc2)ccn1`, the values for the IC50 in series [5] and in series [3] were 464 nM and 3830 nM, respectively.
Take `FC(F)(F)c1cc(NCC#Cc2ccc(Cl)cc2)ccn1`: the IC50 in [5] worked out at 281 nM; in [3], 7970 nM.
As for `FC(F)(F)c1cc(NCC#Cc2ccc(Oc3ccccc3)cc2)ccn1`, the IC50 in series [5] was 20 nM; in [3], 490 nM. The half-life in series [4] came to 53 min. Besides, in series [7], the solubility kinetic was determined as 13.2 µM (≈ 4.86 µg/mL). Also, the CC50 is 10000 nM in [8] and above 25000 nM in series [9].
On to `COc1ccc(C#CCNc2ccnc(C(F)(F)F)c2)cc1C`, for which the IC50 in series [5] stood at 289 nM. Besides, the Activity in series [1] was found to be 5%.
Take `Fc1ccc(CCCNc2ccnc(C(F)(F)F)c2)cc1`: the IC50 was determined as 251 nM in series [5] and 3650 nM in series [3]. In series [4], this compound showed a half-life of 32.7 min. Besides, the solubility kinetic in [7] came out at 93.9 µM (≈ 28 µg/mL). In addition, the CC50 in [8] came out at 25000 nM.
As to `Nc1cc(NCCCc2ccc(F)cc2)cc(C(F)(F)F)n1`, the IC50 came to 140 nM in [5] and 6900 nM in series [3]. In series [4], this compound had a half-life of 56 min.
